{"source": "ChEMBL document CHEMBL1212733", "about": "“Chemical genomics in Escherichia coli identifies an inhibitor of bacterial lipoprotein targeting” (Nat Chem Biol, 2009)", "key": {"[1]": {"biological_target": "Multidrug efflux pump subunit AcrB (Escherichia coli (strain K12)) (UniProt P31224)", "sequence (P31224 whole entry)": "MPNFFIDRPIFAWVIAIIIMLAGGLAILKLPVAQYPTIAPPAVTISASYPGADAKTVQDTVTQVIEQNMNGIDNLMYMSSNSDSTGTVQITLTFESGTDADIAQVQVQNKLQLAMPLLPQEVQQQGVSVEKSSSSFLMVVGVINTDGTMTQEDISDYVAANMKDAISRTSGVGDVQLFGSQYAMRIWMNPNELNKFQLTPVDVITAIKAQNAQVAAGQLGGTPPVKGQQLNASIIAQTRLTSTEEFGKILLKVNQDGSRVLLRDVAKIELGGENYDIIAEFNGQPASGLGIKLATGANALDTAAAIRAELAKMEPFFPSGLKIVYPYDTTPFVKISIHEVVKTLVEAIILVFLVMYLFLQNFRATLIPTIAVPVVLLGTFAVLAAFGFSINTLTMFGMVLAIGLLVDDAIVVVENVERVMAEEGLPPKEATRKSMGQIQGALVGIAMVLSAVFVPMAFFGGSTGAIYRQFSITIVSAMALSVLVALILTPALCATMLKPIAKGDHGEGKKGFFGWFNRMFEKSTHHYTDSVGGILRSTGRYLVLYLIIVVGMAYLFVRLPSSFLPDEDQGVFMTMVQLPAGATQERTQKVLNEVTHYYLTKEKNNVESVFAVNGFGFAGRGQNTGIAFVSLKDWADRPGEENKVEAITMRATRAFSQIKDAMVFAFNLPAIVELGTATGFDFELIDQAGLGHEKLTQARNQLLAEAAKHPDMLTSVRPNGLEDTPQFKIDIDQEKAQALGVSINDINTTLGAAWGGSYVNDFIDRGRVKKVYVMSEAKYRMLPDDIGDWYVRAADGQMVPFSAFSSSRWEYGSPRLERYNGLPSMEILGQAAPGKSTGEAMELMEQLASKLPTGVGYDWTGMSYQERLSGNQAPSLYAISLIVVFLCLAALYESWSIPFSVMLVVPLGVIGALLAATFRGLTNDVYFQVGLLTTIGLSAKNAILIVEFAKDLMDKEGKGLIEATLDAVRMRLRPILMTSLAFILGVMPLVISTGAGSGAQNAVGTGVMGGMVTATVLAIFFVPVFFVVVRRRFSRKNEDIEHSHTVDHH", "assay": "Binding affinity to Escherichia coli K-12 MC1061 acrB assessed as susceptibility to compound efflux at 0.01 to 1 ug/ml after 16 hrs by plate reader assay"}, "[2]": {"biological_target": "Acyl carrier protein (Escherichia coli (strain K12)) (UniProt P0A6A8)", "sequence (P0A6A8 whole entry)": "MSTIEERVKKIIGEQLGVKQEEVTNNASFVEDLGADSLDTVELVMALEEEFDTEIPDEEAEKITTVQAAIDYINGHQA", "assay": "Inhibition of IPTG-stimulated Escherichia coli K-12 acpP at 8 fold MIC by microarray analysis"}, "[3]": {"biological_target": "Octaprenyl diphosphate synthase (Escherichia coli (strain K12)) (UniProt P0AD57)", "sequence (P0AD57 whole entry)": "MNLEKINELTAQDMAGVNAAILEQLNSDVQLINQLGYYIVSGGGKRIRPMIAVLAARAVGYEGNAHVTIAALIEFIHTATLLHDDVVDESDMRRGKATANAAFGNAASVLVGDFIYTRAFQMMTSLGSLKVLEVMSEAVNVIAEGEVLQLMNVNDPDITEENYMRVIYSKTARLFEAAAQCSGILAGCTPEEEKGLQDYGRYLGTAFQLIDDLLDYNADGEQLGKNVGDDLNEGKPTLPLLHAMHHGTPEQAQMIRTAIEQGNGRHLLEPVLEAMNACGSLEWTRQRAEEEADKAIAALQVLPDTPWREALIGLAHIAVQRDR", "assay": "Inhibition of IPTG-stimulated Escherichia coli K-12 ispB at 4 fold MIC by microarray analysis"}, "[4]": {"biological_target": "Farnesyl diphosphate synthase (Escherichia coli K-12) (UniProt P22939)", "sequence (P22939 whole entry)": "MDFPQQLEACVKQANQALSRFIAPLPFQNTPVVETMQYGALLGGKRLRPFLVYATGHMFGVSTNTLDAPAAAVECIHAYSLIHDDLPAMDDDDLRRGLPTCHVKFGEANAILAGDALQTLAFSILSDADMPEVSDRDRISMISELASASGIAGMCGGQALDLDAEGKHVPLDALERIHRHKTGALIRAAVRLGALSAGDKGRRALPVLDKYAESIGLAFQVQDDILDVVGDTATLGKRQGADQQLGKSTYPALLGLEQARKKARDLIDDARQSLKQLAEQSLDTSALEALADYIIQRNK", "assay": "Inhibition of IPTG-stimulated Escherichia coli K-12 ispA at 4 fold MIC by microarray analysis"}, "[5]": {"biological_target": "Octaprenyl diphosphate synthase (Escherichia coli (strain K12)) (UniProt P0AD57)", "assay": "Inhibition of IPTG-stimulated Escherichia coli K-12 ispB at 8 fold MIC by microarray analysis"}, "[6]": {"biological_target": "T1, Dihydrofolate synthase/folylpolyglutamate synthase (Escherichia coli (strain K12)) (UniProt P08192)", "T1 sequence (whole entry)": "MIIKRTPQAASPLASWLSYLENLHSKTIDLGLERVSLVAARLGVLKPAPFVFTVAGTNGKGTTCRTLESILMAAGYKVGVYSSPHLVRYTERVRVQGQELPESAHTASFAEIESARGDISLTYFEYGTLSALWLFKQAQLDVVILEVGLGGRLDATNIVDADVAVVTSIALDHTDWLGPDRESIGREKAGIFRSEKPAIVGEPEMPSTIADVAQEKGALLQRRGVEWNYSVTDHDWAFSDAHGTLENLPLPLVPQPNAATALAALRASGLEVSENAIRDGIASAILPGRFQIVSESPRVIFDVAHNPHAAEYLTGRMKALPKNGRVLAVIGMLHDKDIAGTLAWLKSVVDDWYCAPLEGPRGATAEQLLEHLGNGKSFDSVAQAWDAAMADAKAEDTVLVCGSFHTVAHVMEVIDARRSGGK", "assay": "Inhibition of IPTG-stimulated Escherichia coli K-12 folC at 4 fold MIC by microarray analysis"}, "[7]": {"biological_target": "Acyl carrier protein (Escherichia coli (strain K12)) (UniProt P0A6A8)", "assay": "Inhibition of IPTG-stimulated Escherichia coli K-12 acpP at 4 fold MIC by microarray analysis"}, "[8]": {"biological_target": "3-oxoacyl-[acyl-carrier-protein] synthase 1 (Escherichia coli K-12) (UniProt P0A953)", "sequence (P0A953 whole entry)": "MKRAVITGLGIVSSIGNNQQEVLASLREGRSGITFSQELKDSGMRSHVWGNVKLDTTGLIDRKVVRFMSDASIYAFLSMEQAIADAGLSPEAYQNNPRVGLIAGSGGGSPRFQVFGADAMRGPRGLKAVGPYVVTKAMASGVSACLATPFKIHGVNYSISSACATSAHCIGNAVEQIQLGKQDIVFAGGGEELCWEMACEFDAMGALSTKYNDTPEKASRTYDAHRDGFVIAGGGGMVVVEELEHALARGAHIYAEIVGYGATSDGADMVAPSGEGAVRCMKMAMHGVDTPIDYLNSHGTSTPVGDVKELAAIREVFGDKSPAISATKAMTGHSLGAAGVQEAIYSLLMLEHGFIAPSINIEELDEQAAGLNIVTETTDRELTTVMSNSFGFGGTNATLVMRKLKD", "assay": "Inhibition of IPTG-stimulated Escherichia coli K-12 fabB at 8 fold MIC by microarray analysis"}, "[9]": {"biological_target": "1-acyl-sn-glycerol-3-phosphate acyltransferase (Escherichia coli (strain K12)) (UniProt P26647)", "sequence (P26647 whole entry)": "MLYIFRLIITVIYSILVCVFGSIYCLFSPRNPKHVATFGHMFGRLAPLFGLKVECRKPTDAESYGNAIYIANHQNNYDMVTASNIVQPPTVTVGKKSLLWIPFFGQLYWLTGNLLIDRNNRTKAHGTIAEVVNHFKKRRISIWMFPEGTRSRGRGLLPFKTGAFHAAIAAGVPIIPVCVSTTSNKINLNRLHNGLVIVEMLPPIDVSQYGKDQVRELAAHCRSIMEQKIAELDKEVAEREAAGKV", "assay": "Inhibition of IPTG-stimulated Escherichia coli K-12 plsC at 4 fold MIC by microarray analysis"}, "[10]": {"biological_target": "CDP-diacylglycerol--glycerol-3-phosphate 3-phosphatidyltransferase (Escherichia coli (strain K12)) (UniProt P0ABF8)", "sequence (P0ABF8 whole entry)": "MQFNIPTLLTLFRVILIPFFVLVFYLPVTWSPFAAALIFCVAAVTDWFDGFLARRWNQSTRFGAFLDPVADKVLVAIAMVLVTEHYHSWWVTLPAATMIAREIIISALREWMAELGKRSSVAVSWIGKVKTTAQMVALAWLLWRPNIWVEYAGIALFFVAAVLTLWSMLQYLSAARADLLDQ", "assay": "Inhibition of IPTG-stimulated Escherichia coli K-12 pgsA at 4 fold MIC by microarray analysis"}, "[11]": {"biological_target": "T2, Outer membrane protein TolC (Escherichia coli (strain K12)) (UniProt P02930)", "T2 sequence (whole entry)": "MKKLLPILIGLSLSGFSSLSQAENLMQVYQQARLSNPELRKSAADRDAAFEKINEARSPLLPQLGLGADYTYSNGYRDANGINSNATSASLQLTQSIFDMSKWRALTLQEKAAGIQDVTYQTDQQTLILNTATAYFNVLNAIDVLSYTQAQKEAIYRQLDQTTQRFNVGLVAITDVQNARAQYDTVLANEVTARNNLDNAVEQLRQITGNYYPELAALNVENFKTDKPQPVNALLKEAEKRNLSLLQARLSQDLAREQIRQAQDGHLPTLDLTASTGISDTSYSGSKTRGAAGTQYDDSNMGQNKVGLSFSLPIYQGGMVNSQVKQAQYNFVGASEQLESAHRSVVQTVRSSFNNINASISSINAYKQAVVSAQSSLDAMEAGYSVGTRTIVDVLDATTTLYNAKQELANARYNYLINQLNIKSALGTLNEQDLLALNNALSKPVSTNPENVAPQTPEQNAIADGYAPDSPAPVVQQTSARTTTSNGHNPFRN", "assay": "Inhibition of IPTG-stimulated Escherichia coli K-12 tolC at 16 fold MIC by microarray analysis"}, "[12]": {"biological_target": "Guanylate kinase (Escherichia coli (strain K12)) (UniProt P60546)", "assay": "Inhibition of IPTG-stimulated Escherichia coli K-12 gmk at 4 fold MIC by microarray analysis"}, "[13]": {"biological_target": "T1, Dihydrofolate synthase/folylpolyglutamate synthase (Escherichia coli (strain K12))", "assay": "Inhibition of IPTG-stimulated Escherichia coli K-12 folC at 16 fold MIC by microarray analysis"}, "[14]": {"biological_target": "UDP-N-acetylglucosamine 1-carboxyvinyltransferase (Escherichia coli K-12) (UniProt P0A749)", "sequence (P0A749 whole entry)": "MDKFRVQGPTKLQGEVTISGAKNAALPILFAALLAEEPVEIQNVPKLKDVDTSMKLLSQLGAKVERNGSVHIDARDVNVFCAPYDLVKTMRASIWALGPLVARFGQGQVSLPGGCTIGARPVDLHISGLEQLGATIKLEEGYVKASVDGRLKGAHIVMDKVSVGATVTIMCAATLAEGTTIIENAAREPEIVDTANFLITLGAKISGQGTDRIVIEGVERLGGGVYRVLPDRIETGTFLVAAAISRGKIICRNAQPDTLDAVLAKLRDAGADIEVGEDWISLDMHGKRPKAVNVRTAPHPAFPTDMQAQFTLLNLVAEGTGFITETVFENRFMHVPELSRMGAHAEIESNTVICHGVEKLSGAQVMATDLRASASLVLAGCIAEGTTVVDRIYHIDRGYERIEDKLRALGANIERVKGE", "assay": "Inhibition of IPTG-stimulated Escherichia coli K-12 murA at 4 fold MIC by microarray analysis"}, "[15]": {"biological_target": "T3, Uncharacterized protein YdiL (Escherichia coli (strain K12)) (UniProt P76196)", "T3 sequence (whole entry)": "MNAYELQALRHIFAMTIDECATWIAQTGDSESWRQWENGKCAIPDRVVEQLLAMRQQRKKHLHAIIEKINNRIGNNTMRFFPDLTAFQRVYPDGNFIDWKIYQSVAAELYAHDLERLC", "assay": "Inhibition of IPTG-stimulated Escherichia coli K-12 ydiL at 4 fold MIC by microarray analysis"}, "[16]": {"biological_target": "Putative reactive intermediate deaminase TdcF (Escherichia coli (strain K12)) (UniProt P0AGL2)", "sequence (P0AGL2 whole entry)": "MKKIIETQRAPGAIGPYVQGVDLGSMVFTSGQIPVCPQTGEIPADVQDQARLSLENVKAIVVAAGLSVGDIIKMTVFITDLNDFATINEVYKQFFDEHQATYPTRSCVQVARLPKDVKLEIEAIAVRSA", "assay": "Inhibition of IPTG-stimulated Escherichia coli K-12 yhaR at 4 fold MIC by microarray analysis"}, "[17]": {"biological_target": "Uncharacterized protein YdfB (Escherichia coli (strain K12)) (UniProt P29009)", "sequence (P29009 whole entry)": "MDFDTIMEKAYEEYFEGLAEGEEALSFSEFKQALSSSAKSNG", "assay": "Inhibition of IPTG-stimulated Escherichia coli K-12 ydfB at 4 fold MIC by microarray analysis"}, "[18]": {"biological_target": "3-oxoacyl-[acyl-carrier-protein] synthase 1 (Escherichia coli K-12) (UniProt P0A953)", "assay": "Inhibition of IPTG-stimulated Escherichia coli K-12 fabB at 4 fold MIC by microarray analysis"}, "[19]": {"biological_target": "Large ribosomal subunit protein bL28 (Escherichia coli (strain K12)) (UniProt P0A7M2)", "assay": "Inhibition of IPTG-stimulated Escherichia coli K-12 rpmB at 4 fold MIC by microarray analysis"}, "[20]": {"biological_target": "UDP-N-acetylmuramoyl-L-alanyl-D-glutamate--2,6-diaminopimelate ligase (Escherichia coli (strain K12)) (UniProt P22188)", "sequence (P22188 whole entry)": "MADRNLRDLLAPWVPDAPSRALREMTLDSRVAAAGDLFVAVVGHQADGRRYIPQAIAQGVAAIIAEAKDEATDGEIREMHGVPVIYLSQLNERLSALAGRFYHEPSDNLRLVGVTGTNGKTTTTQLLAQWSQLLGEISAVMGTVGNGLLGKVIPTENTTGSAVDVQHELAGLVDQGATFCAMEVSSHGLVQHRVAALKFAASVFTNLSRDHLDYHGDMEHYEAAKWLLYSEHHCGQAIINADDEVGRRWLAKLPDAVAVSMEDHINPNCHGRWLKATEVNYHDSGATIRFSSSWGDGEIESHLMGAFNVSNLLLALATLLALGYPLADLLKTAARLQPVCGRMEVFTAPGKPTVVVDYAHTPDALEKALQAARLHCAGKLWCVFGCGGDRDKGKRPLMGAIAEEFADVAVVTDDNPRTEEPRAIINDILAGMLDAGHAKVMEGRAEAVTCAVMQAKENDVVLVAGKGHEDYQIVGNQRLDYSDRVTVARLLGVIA", "assay": "Inhibition of IPTG-stimulated Escherichia coli K-12 murE at 4 fold MIC by microarray analysis"}, "[21]": {"biological_target": "Fructose-bisphosphate aldolase class 2 (Escherichia coli K-12) (UniProt P0AB71)", "sequence (P0AB71 whole entry)": "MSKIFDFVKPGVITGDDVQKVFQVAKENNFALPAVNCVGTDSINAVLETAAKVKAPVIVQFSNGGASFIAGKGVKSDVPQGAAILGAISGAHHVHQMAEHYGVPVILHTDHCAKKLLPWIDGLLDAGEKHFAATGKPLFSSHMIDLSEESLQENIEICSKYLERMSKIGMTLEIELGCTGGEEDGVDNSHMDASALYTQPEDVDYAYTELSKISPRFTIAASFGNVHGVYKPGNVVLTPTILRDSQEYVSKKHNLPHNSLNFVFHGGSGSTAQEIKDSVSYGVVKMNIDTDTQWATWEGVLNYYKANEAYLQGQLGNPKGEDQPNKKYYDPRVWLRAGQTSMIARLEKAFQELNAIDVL", "assay": "Inhibition of IPTG-stimulated Escherichia coli K-12 fbaA at 4 fold MIC by microarray analysis"}, "[22]": {"biological_target": "Multifunctional CCA protein (Escherichia coli (strain K12)) (UniProt P06961)", "sequence (P06961 whole entry)": "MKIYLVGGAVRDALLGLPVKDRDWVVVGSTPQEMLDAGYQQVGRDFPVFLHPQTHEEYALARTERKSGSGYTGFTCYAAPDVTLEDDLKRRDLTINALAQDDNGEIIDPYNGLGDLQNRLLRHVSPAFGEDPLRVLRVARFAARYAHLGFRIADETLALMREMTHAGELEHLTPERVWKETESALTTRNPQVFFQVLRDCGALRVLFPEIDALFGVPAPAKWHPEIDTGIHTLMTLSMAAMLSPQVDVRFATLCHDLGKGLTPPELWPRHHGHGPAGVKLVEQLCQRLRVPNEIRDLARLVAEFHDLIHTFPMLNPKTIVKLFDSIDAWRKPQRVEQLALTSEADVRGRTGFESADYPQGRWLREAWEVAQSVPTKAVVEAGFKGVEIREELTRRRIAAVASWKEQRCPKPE", "assay": "Inhibition of IPTG-stimulated Escherichia coli K-12 cca at 4 fold MIC by microarray analysis"}, "[23]": {"biological_target": "T4, Cell division protein FtsA (Escherichia coli (strain K12)) (UniProt P0ABH0)", "T4 sequence (whole entry)": "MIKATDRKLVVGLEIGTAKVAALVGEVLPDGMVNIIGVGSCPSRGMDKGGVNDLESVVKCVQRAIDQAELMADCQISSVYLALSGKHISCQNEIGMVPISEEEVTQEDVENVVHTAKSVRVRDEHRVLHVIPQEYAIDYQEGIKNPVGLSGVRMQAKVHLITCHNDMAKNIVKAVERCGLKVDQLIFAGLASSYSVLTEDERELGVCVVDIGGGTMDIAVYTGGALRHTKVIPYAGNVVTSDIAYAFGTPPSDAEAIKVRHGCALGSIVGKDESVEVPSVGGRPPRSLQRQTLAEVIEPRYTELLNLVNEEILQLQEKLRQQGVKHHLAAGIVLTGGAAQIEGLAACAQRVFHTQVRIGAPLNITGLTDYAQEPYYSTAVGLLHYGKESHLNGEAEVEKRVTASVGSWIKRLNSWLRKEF", "assay": "Inhibition of IPTG-stimulated Escherichia coli K-12 ftsA at 4 fold MIC by microarray analysis"}, "[24]": {"biological_target": "T5, Iron-sulfur cluster insertion protein ErpA (Escherichia coli (strain K12)) (UniProt P0ACC3)", "T5 sequence (whole entry)": "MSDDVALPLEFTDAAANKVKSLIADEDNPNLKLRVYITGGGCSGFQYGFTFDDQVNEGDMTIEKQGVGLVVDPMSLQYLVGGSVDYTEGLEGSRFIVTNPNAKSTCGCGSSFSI", "assay": "Inhibition of IPTG-stimulated Escherichia coli K-12 yadR at 8 fold MIC by microarray analysis"}, "[25]": {"biological_target": "UDP-3-O-acyl-N-acetylglucosamine deacetylase (Escherichia coli K-12) (UniProt P0A725)", "sequence (P0A725 whole entry)": "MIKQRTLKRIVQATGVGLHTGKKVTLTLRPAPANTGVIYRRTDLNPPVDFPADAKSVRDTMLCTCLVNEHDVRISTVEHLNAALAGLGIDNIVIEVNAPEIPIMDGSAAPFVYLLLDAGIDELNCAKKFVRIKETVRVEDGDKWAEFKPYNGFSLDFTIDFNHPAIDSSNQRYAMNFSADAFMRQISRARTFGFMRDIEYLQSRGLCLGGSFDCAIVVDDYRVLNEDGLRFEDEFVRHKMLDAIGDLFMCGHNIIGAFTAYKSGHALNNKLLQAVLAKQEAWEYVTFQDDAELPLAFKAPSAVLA", "assay": "Inhibition of IPTG-stimulated Escherichia coli K-12 envA at 4 fold MIC by microarray analysis"}, "[26]": {"biological_target": "T4, Cell division protein FtsA (Escherichia coli (strain K12))", "assay": "Inhibition of IPTG-stimulated Escherichia coli K-12 ftsA at 16 fold MIC by microarray analysis"}, "[27]": {"biological_target": "D-alanine--D-alanine ligase B (Escherichia coli K-12) (UniProt P07862)", "assay": "Inhibition of IPTG-stimulated Escherichia coli K-12 ddlB at 16 fold MIC by microarray analysis"}, "[28]": {"biological_target": "tRNA threonylcarbamoyladenosine biosynthesis protein TsaE (Escherichia coli (strain K12)) (UniProt P0AF67)", "assay": "Inhibition of IPTG-stimulated Escherichia coli K-12 yjeE at 4 fold MIC by microarray analysis"}, "[29]": {"biological_target": "T5, Iron-sulfur cluster insertion protein ErpA (Escherichia coli (strain K12))", "assay": "Inhibition of IPTG-stimulated Escherichia coli K-12 yadR at 16 fold MIC by microarray analysis"}, "[30]": {"biological_target": "T2, Outer membrane protein TolC (Escherichia coli (strain K12))", "assay": "Inhibition of IPTG-stimulated Escherichia coli K-12 tolC at 4 fold MIC by microarray analysis"}, "[31]": {"biological_target": "Small ribosomal subunit protein bS18 (Escherichia coli (strain K12)) (UniProt P0A7T7)", "assay": "Inhibition of IPTG-stimulated Escherichia coli K-12 rpSR at 4 fold MIC by microarray analysis"}, "[32]": {"biological_target": "D-alanine--D-alanine ligase B (Escherichia coli K-12) (UniProt P07862)", "assay": "Inhibition of IPTG-stimulated Escherichia coli K-12 ddlB at 4 fold MIC by microarray analysis"}, "[33]": {"biological_target": "T5, Iron-sulfur cluster insertion protein ErpA (Escherichia coli (strain K12))", "assay": "Inhibition of IPTG-stimulated Escherichia coli K-12 yadR at 4 fold MIC by microarray analysis"}, "[34]": {"biological_target": "T4, Cell division protein FtsA (Escherichia coli (strain K12))", "assay": "Inhibition of IPTG-stimulated Escherichia coli K-12 ftsA at 8 fold MIC by microarray analysis"}, "[35]": {"biological_target": "D-alanine--D-alanine ligase B (Escherichia coli K-12) (UniProt P07862)", "assay": "Inhibition of IPTG-stimulated Escherichia coli K-12 ddlB at 8 fold MIC by microarray analysis"}}, "note": "Active and inactive are the calls of the source. The rule behind the calls is not given here."}
{"smiles": "CCn1cc(C(=O)O)c(=O)c2cc(F)c(N3CCNCC3)cc21", "values": [{"measurement": "Activity", "setting": "[1]", "result": "inactive"}]}
{"smiles": "C[C@@H]1O[C@@H]1P(=O)(O)O", "values": [{"measurement": "inhibition", "setting": "[2]", "result": "Active"}, {"measurement": "inhibition", "setting": "[3]", "result": "Active"}, {"measurement": "inhibition", "setting": "[4]", "result": "Active"}, {"measurement": "inhibition", "setting": "[5]", "result": "Active"}, {"measurement": "inhibition", "setting": "[6]", "result": "Active"}, {"measurement": "inhibition", "setting": "[7]", "result": "Active"}, {"measurement": "inhibition", "setting": "[8]", "result": "Active"}, {"measurement": "inhibition", "setting": "[9]", "result": "Active"}, {"measurement": "inhibition", "setting": "[10]", "result": "Active"}, {"measurement": "inhibition", "setting": "[11]", "result": "Active"}, {"measurement": "inhibition", "setting": "[12]", "result": "Active"}, {"measurement": "inhibition", "setting": "[13]", "result": "Active"}, {"measurement": "inhibition", "setting": "[14]", "result": "Active"}, {"measurement": "inhibition", "setting": "[15]", "result": "Active"}, {"measurement": "inhibition", "setting": "[16]", "result": "Active"}, {"measurement": "inhibition", "setting": "[17]", "result": "Active"}, {"measurement": "inhibition", "setting": "[18]", "result": "Active"}, {"measurement": "inhibition", "setting": "[19]", "result": "Active"}, {"measurement": "inhibition", "setting": "[20]", "result": "Active"}, {"measurement": "inhibition", "setting": "[21]", "result": "Active"}, {"measurement": "inhibition", "setting": "[22]", "result": "Active"}]}
{"smiles": "N[C@@H]1CONC1=O", "values": [{"measurement": "inhibition", "setting": "[23]", "result": "Active"}, {"measurement": "inhibition", "setting": "[24]", "result": "Active"}, {"measurement": "inhibition", "setting": "[25]", "result": "Active"}, {"measurement": "inhibition", "setting": "[26]", "result": "Active"}, {"measurement": "inhibition", "setting": "[27]", "result": "Active"}, {"measurement": "inhibition", "setting": "[28]", "result": "Active"}, {"measurement": "inhibition", "setting": "[29]", "result": "Active"}, {"measurement": "inhibition", "setting": "[30]", "result": "Active"}, {"measurement": "inhibition", "setting": "[31]", "result": "Active"}, {"measurement": "inhibition", "setting": "[32]", "result": "Active"}, {"measurement": "inhibition", "setting": "[33]", "result": "Active"}, {"measurement": "inhibition", "setting": "[34]", "result": "Active"}, {"measurement": "inhibition", "setting": "[35]", "result": "Active"}]}
